Earlier results as cited in patent US6800435B2, “Insect sodium channels from insecticide-susceptible and insecticide-resistant house flies” (Cornell Research Foundation, Inc., priority 1996, dated 2004).

System: resistant (538ge) house fly strain
Conditions: kdr trait, adult flies, Sawicki 1978

Clc1ccc(C(c2ccc(Cl)cc2)C(Cl)(Cl)Cl)cc1 [DDT, 1,1-bis-(4-chlorophenyl)-2,2,2-trichloroethane]
doses required to kill approximately 50% of the treated individuals: approximately 0.5 μg per adult fly
